Measured values as given in publication PMC9511493, “2-(Fluoromethoxy)-4′-(S-methanesulfonimidoyl)-1,1′-biphenyl (UCM-1306), an Orally Bioavailable Positive Allosteric Modulator of the Human Dopamine D1 Receptor for Parkinson’s Disease” (Journal of Medicinal Chemistry, 2022).
Values joined by “and” are separate entries in the source; they are usually repeats but may differ in a detail not shown here. Equal entries are not always repeated.

What was measured:
CYP3A4 = target: T1, CYP3A4 (Homo sapiens, UniProt P08684); experiment: cytochrome inhibition, fluorescence assay, CYP3A4; type: in vitro ADME
T1 construct: host or cells: insect cell microsomes
T1 sequence (P08684 whole entry): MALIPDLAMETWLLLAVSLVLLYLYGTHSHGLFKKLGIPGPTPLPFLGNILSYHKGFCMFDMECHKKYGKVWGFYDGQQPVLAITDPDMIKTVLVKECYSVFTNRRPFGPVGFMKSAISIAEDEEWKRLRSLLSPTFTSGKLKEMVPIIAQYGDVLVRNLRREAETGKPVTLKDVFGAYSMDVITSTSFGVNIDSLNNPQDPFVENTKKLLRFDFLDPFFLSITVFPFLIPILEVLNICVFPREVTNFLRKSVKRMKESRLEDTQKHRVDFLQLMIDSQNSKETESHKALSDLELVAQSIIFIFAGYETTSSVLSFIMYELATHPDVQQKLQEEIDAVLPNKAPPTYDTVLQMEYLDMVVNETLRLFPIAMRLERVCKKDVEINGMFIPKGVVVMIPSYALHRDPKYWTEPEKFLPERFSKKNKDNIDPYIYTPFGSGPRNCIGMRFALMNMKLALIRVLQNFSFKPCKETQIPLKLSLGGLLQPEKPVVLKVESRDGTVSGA
Experimental: (§1) Cytochrome inhibition. The objective of this study was to screen the potential of test […]
(§2) performed using recombinant isoforms CYP1A2, CYP2C9, CYP2C19, CYP2D6, and CYP3A4, and probe substrates with fluorescent detection.
(§3) Assays were conducted in a 200 µL volume in 96-well microtiter plates (COSTAR 3915).
(§4) Addition of cofactor-buffer mixture (KH2PO4 buffer, 1.3 mM NADP, 3.3 mM MgCl2, 3.3 mM glucose -6- phosphate, and 0.4 U/mL glucose -6- phosphate dehydrogenase), supersomes control, standard inhibitors (furafyline, tranylzypromine, ketoconazole, sulfaphenazole, and quinidine from Sigma Aldrich) and test compound to the plate was carried out by a liquid handling station (Zephyr Caliper). The plate was then pre-incubated at 37 °C for 5 min, and the reaction was initiated by the addition of the pr e - warmed enzyme/substrate (E/S) mix. […]
(§5) Fluorescence per well was measured using a fluorescence plate reader (Tecan Infinite M1000 pro) and percentage of inhibition was calculated. hERG ion channel inhibition. […]

[1] = parallel artificial membrane permeability assay (PAMPA); type: in vitro ADME; conditions: read-out: P
Experimental: Parallel artificial membrane permeability assay (PAMPA). The assessment of the membrane permeability of selected compounds and reference compounds propranolol and metoprolol was performed in a commercially available 96-well Corning Gentest pre-coated PAMPA plate system (Cultek S.L.U., Spain). Prior to use, the pre-coated PAMPA plate system was warmed to rt for 30 min and 300 μL of 200 μM solution of tested compound in 2% DMSO in PBS were added to the wells in the receiver (donor) plate.
Then, 200 μL of PBS were added to the wells in the filter (acceptor) plate. The filter plate was placed on the receiver plate by slowly lowering the pre-coated PAMPA plate until it sits on the receiver plate. […] The final concentrations of compound in both donor and acceptor wells were analyzed by HPLC-MS using SIM mode, and quantification was estimated by using the peak area integration normalized with an internal standard. Permeability value of the compounds was calculated using the following formula: P (cm/s) = {-ln[1-CA(t)/Ceq]}/[A*(1/VD+1/VA)*t], where A = filter area (0.3 cm2), VD = donor well volume (0.3 mL), VA = acceptor well volume (0.2 mL), t = incubation time (s), CA(t) = compound concentration (μM) in acceptor well at time t, CD(t) = compound concentration (μM) in donor well at time t, and Ceq = […]

hERG potassium channel = target: T2, hERG potassium channel (Homo sapiens, UniProt Q12809); experiment: hERG ion channel inhibition (Fluxor potassium assay, CHO cells); type: cell-based; conditions: blockade of the K+ channel current at 10 μM
T2 construct: expressed in transfected cells; host or cells: CHO cell line
T2 sequence (Q12809 whole entry): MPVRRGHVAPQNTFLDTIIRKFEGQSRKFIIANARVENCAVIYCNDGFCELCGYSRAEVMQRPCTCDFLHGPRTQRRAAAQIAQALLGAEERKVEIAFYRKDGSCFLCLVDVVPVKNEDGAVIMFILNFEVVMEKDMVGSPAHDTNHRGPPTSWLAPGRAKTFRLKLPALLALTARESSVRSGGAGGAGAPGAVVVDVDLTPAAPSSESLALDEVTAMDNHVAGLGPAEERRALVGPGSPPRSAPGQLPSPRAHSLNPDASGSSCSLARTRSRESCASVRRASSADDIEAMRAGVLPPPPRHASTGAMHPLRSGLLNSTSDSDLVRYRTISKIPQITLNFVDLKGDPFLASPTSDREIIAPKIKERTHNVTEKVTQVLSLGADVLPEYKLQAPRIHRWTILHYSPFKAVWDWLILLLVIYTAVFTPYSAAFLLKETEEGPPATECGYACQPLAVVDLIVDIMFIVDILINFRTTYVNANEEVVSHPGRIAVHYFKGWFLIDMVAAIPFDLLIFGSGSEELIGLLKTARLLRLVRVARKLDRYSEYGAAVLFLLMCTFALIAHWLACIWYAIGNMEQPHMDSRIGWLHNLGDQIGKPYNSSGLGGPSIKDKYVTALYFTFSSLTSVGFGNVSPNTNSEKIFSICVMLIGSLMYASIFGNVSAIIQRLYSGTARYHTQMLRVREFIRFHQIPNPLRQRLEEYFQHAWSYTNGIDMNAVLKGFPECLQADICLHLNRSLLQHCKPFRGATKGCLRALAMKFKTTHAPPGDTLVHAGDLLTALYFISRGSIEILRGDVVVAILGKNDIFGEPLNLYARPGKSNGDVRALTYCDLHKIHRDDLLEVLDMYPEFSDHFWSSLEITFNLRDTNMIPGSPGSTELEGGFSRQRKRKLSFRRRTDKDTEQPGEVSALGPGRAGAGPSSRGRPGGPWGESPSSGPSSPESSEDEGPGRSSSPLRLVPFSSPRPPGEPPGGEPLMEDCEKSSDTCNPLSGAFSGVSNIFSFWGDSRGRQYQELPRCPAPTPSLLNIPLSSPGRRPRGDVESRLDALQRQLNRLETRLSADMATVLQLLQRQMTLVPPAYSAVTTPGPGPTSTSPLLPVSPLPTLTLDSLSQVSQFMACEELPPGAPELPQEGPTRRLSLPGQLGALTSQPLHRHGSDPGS
Experimental: CYP1A2 and CYP2C19, 7- methoxy- 4(trifluoromethyl)coumarin for CYP2C9, 3-[2-(N,N- diethyl -N-methylammonium)ethyl]-7- methoxy- 4- methylcoumarin for CYP2D6, and 7- benzyloxytrifluoromethylcoumarin for CYP3A4), to give the final assay concentrations in a reaction volume of 200 µL. Reactions were terminated after specific time for each cytochrome by addition of STOP solution (0.5 M 80:20 ACN/TrisHCl). […]
hERG ion channel inhibition. The assay was carried out using a CHO cell line transfected with the hERG potassium channel. C ells were seeded (2500 cells/well) 72 h before the assay on a 384-well black plate (Greiner 781091). Cell s were maintained at 37 °C in a 5% CO2 atmosphere for 24 h and at 30 °C in a 5% CO 2 atmosphere for 48 h. hERG activity was measured by using the FluxorTM Potassium Ion Chanel Assay Kit (Thermo Fisher F10016). Medium was replaced for 20 µL of loading buffer and cells were incubated for 60 min at 25 °C, protected from direct light. After incubation, l oading buffer was replaced for a ssay buffer and compounds were incubated for 30 min at 25 °C. After this time, 5 µL of stimulus buffer was added to each well and fluorescence was read (λ ex = 490 nm, λem = 525 nm) every second after the establishment of a baseline line using an imaging plate reader system (FDSS7000EX, Hamamatsu®). The fluorescent signal was […]

CYP2C19 = target: T3, CYP2C19 (Homo sapiens, UniProt P33261); experiment: cytochrome inhibition, fluorescence assay, CYP2C19; type: in vitro ADME
T3 construct: host or cells: insect cell microsomes
T3 sequence (P33261 whole entry): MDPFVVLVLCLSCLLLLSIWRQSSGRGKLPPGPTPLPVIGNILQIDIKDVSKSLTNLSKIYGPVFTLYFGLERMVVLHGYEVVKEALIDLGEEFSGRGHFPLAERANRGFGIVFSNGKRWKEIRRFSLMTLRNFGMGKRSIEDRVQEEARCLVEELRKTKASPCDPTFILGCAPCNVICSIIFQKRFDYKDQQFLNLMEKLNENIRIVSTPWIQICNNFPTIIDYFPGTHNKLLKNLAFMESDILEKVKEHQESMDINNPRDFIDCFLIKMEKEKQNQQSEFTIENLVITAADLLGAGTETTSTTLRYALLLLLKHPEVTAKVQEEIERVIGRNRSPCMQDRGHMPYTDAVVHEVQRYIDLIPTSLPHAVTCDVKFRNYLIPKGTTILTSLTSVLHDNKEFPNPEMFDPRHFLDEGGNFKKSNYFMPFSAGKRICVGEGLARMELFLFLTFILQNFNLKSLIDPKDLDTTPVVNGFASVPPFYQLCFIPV
Experimental: as §1, §2, §3, §4, §5

[2] = percentage of inhibition at 10 μM

CYP34A (%) (CYP3A4; [2])	CYP2C19 (%) (CYP2C19; [2])	Structure (SMILES)	IC50 (CYP3A4; read-out: CYP34A (IC50)) [µM]	Papp at 5 h, 200 μM [1] [×10⁻⁶ cm/s]	hERG inhibition (%) (hERG potassium channel)	IC50 (CYP2C19) [µM]
–	–	O=Cc1ccc(-c2ccccc2OCF)cc1 [Compound 3, 2′-(Fluoromethoxy)[1,1′-biphenyl]-4-carbaldehyde]	2.82 ± 0.32	20	11 ± 2	6.53 ± 1.12
9% and 9 ± 1%	37 ± 2	CS(=N)(=O)c1ccc(-c2ccccc2OCF)cc1 (centres unmarked) [Compound 26, 2-(Fluoromethoxy)-4′-(S-methanesulfonimidoyl)-1,1′-biphenyl]	–	24	21	–
